# Results as given in EP0363041A1 (priority 1988, dated 1990).
# Where “and” joins values, the source holds several entries; their conditions need not be identical. Equal values may be shown once. Read-outs that look alike come from different tables or passages of the source.
# How the values were obtained:
# Type in all cases: binding, mouse
# MO-2 = test system: MO-2
# MO-3 = test system: MO-3
# MO-4 = test system: MO-4
# MO-5 = test system: MO-5
# MO-6 = test system: MO-6
# [1] = test system: "antibody carrier" (monoclonal antibody of MO-3 strain); experiment: Latex agglutination assay: competition with "normorphine carrier" for "antibody carrier"
smiles,measurement,setting,value
"COC(=O)[C@H]1[C@@H](OC(=O)c2ccccc2)C[C@@H]2CC[C@H]1N2C [Cocaine, cocaine]","reactivity ratio with morphine, MO-2",MO-2,< 1.0
same,"reactivity ratio with morphine, MO-3",MO-3,< 0.001
same,"reactivity ratio with morphine, MO-4",MO-4,< 0.001
same,"reactivity ratio with morphine, MO-5",MO-5,< 0.001
same,"reactivity ratio with morphine, MO-6",MO-6,< 0.1
same,time at which polystyrene latex particles were observed to be agglutinated,[1],16 s and 13 s
"COc1ccc2c3c1O[C@H]1[C@@H](O)C=C[C@H]4[C@@H](C2)N(C)CC[C@@]341 [Codeine, codeine]","reactivity ratio with morphine, MO-2",MO-2,< 1.0
same,"reactivity ratio with morphine, MO-3",MO-3,< 0.1
same,"reactivity ratio with morphine, MO-4",MO-4,< 0.1
same,"reactivity ratio with morphine, MO-5",MO-5,< 0.1
same,"reactivity ratio with morphine, MO-6",MO-6,< 0.1
"CCOc1ccc2c3c1O[C@H]1[C@@H](O)C=C[C@H]4[C@@H](C2)N(C)CC[C@@]341 [Ethylmorphine, ethylmorphine]","reactivity ratio with morphine, MO-2",MO-2,< 1.0
same,"reactivity ratio with morphine, MO-3",MO-3,< 0.01
same,"reactivity ratio with morphine, MO-4",MO-4,< 0.01
same,"reactivity ratio with morphine, MO-5",MO-5,< 0.01
same,"reactivity ratio with morphine, MO-6",MO-6,< 0.1
same,time at which polystyrene latex particles were observed to be agglutinated,"[1]; 0.3 ppm in urine of healthy men, normorphine carrier of Example 5, 0 ppm gives 16 seconds",16 s
same,time at which polystyrene latex particles were observed to be agglutinated,"[1]; 0.3 ppm in urine of healthy men, normorphine carrier of Example 6, 0 ppm gives 13 seconds",13 s
"CN1CC[C@]23c4c5ccc(O[C@@H]6O[C@H](C(=O)O)[C@@H](O)[C@H](O)[C@H]6O)c4O[C@H]2[C@@H](O)C=C[C@H]3[C@H]1C5 [M - 3 - G, morphine-3-glucronide]","reactivity ratio with morphine, MO-2",MO-2,2.0
same,"reactivity ratio with morphine, MO-3",MO-3,0.1
same,"reactivity ratio with morphine, MO-4",MO-4,0.2
same,"reactivity ratio with morphine, MO-5",MO-5,0.5
same,"reactivity ratio with morphine, MO-6",MO-6,0.3
"CN1CC[C@]23c4c5ccc(O)c4O[C@H]2[C@@H](O[C@@H]2O[C@H](C(=O)O)[C@@H](O)[C@H](O)[C@H]2O)C=C[C@H]3[C@H]1C5 [M - 6 - G, morphine-6-glucronide]","reactivity ratio with morphine, MO-2",MO-2,440
same,"reactivity ratio with morphine, MO-3",MO-3,0.6
same,"reactivity ratio with morphine, MO-4",MO-4,0.9
same,"reactivity ratio with morphine, MO-5",MO-5,0.9
same,"reactivity ratio with morphine, MO-6",MO-6,1.0
"CCC(=O)C(CC(C)N(C)C)(c1ccccc1)c1ccccc1 (centres unmarked) [Methadone, methadone]","reactivity ratio with morphine, MO-2",MO-2,< 1.0
same,"reactivity ratio with morphine, MO-3",MO-3,< 0.001
same,"reactivity ratio with morphine, MO-4",MO-4,< 0.001
same,"reactivity ratio with morphine, MO-5",MO-5,< 0.001
same,"reactivity ratio with morphine, MO-6",MO-6,< 0.1
"CN1CC[C@]23c4c5ccc(O)c4O[C@H]2[C@@H](O)C=C[C@H]3[C@H]1C5 [Morphine, morphine]","reactivity ratio with morphine, MO-2",MO-2,100
same,"reactivity ratio with morphine, MO-3",MO-3,100
same,"reactivity ratio with morphine, MO-4",MO-4,100
same,"reactivity ratio with morphine, MO-5",MO-5,100
same,"reactivity ratio with morphine, MO-6",MO-6,100
